For assay [1], the system named is two-cell frozen embryos of heterologous inbred SPR2 mouse. Put plainly: Individual production from frozen eggs of SPR2 (Treatment Example 3). Format: cell-based, Mus spretus. To be noted: SPR2 frozen 2-cell embryos thawed, 1 hour in Y-27632 medium. The procedure: 1. Up to 3 hours before TAKE, Y-27632-added mWM medium (Y-27632 final concentration 10 μM, an example of the “temporary treatment medium” of this example), Y-27632-free mWM medium (an example of “normal medium” of this example) were dropped into 35 mm Petri dishes by 5 drops, respectively, to prepare drops covered with paraffin oil. 2. Two-cell stage embryos were collected from the drops or thawed, placed in Y-27632-added mWM medium, and cultured for about 30 minutes to 1 hour (temporary treatment). According to a typical method, in the afternoon when female mice and rats were mated with males with vasoligation and confirmed to be plugged, about 10 each were transplanted into the left and right oviducts or uterus of plug-confirmed mature female mice and rats. In this production example, two-cell frozen embryos of SPR2 were thawed, cultured in a temporary treatment medium containing Y-27632 for 1 hour, and transplanted into the uterus of a pseudopregnant female mouse. […] As a result, frozen embryo-derived individuals (16 transplanted embryos, 6 newborns) were obtained.

Assay [2] relates to two-cell frozen embryo of a heterologous inbred SPR2 mouse. Put plainly: ES cell establishment from SPR2 frozen embryos (Treatment Example 3). The assay is classed as cell-based, Mus spretus. To be noted: 5 SPR2 frozen embryos thawed and cultured to blastocyst in Y-27632 medium. The procedure:
5. Then, if necessary, the culture was continued in the Y-27632-free mWM medium to establish ES cells.
After thawing a two-cell frozen embryo of a heterologous inbred SPR2 mouse, it was cultured to a blastocyst in the temporary treatment medium containing Y-27632, and an attempt was made to establish ES cells. As a result, ES cells could be efficiently established (5 frozen embryos, 2 strains established). On the other hand, when Y-27632 was not added, no individual production and ES cells were established.

Assay [3] deals with early embryos of the inbred mouse B6J strain. The assay is described as follows: Recovery of inbred mouse early embryos frozen and thawed multiple times (Treatment Example 15). Format: cell-based. To be noted: frozen TWICE. An excerpt:
Then, in the same manner as in Treatment Example 9 according to Example 1, it was investigated whether or not the early embryos of the inbred mouse B6J strain, not the normal mice, could recover after frozen and thawed at multiple times.

Assay [4] deals with thawed 2-cell stage embryos of heterologous inbred SPR2 mouse. The assay is described as follows: Individuals by embryo transfer after freeze-thaw and electroporation (Treatment Example 5). Format: cell-based, Mus spretus. On the procedure:
1. Up to 3 hours before TAKE, Y-27632-added mWM medium (Y-27632 final concentration 10 μM, an example of the “temporary treatment medium” of this example), Y-27632-free mWM medium (an example of “normal medium” of this example) were dropped into 35 mm Petri dishes by 5 drops, respectively, to prepare drops covered with paraffin oil.
2. Two-cell stage embryos were collected from the drops or thawed, placed in Y-27632-added mWM medium, and cultured for about 30 minutes to 1 hour (temporary treatment).
3. After that, TAKE was performed.
4. After TAKE, the embryos were placed in Y-27632-added mWM medium and cultured for about 30 minutes to 1 hour (temporary treatment). Then, the embryos were placed in Y-27632-free mWM medium and cultured at 37° C. under 5% CO2 and 5% O2 conditions until transplantation.
Next, the effect of the temporary treatment medium of this example on the heterologous inbred SPR2 mouse, which cannot obtain the individual by embryo transfer after freeze-thaw and electroporation, was measured.
In the heterologous inbred SPR2 mouse, the thawed 2-cell stage embryos that were cultured in the temporary treatment medium of this example for the specific period before and after electroporation were used, […], and 7 individuals were able to be obtained. […]

The mark [5] stands for this setting: 16 blastocysts transferred to uterus (3.5 days).

Take `C[C@@H](N)[C@H]1CC[C@H](C(=O)Nc2ccncc2)CC1` [Y-27632, trans-4-[(1R)-1-Aminoethyl]-N-4-pyrid inylcyclohexanecarboxamide]: in assay [1] (setting [5]), the “NUMBER OF BIRTHS FEMALE” value came out at 4 and the “NUMBER OF BIRTHS MALE” value amounted to 2. For the same compound, the “NUMBER OF BIRTHS TOTAL (newborns)” value in assay [1] (16 embryos transferred to uterus (3.5 days)) was found to be 6. For the same compound, in assay [2], the “ES cell strains established” value is 2 strains. Besides, in assay [3], the “NUMBER OF RECOVERIES” value is given as 24/26 and the recoveries % is listed as 92%. The compound further came in with an individuals obtained in assay [4] (SPR2 thawed 2-cell embryos, treated before and after electroporation, 17 2-cell embryos transplanted into the oviduct) of 7. The same compound gave an individuals obtained in assay [4] (SPR2 thawed, electroporated, 16 blastocysts transplanted into the uterus 3.5 days after plug) of 5.

(Values after US20230220331A1, “TEMPORARY TREATMENT MEDIUM, TREATMENT KIT, EMBRYOGENESIS ARREST INHIBITOR, EMBRYOGENESIS ARREST INHIBITORY METHOD, DEVELOPMENTAL ENGINEERING PRODUCT PREPARATION METHOD, TRANSPLANTATION METHOD, THERAPEUTIC METHOD, AND DEVELOPMENTAL ENGINEERING PRODUCT” (priority 2020, published 2023).)
